Measured values from patent US6479435B1, “Diaryl ethers and processes for their preparation and herbicidal and desiccant compositions containing them” (ISK Americas Incorporated, priority 1997, dated 2002).

Assays:
Experiment in all cases: Pre-emerge greenhouse herbicide test, phytotoxicity rating
Type in all cases: in vivo
[1] = tested on: large crabgrass (Digitaria sanguinalis, DIGSA); settings: Digitaria sanguinalis, pre-emergence, 336 h, 14 days after application, rating scale 0-100; for pest or weed control at 125 g/ha: Rate 125 g al/ha; for pest or weed control at 500 g/ha: Rate 500 g al/ha
Summary of the method: (§1)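 Seeds sown in sandy loam one day before track-sprayer application of acetone solutions at 125–1000 g ai/ha (187 l/ha), then surface-watered to incorporate and bottom-watered. Injury scored visually at 14 days on a 0–100 scale (0 no damage, 100 complete death).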

[2] = tested on: barnyardgrass (Echinochloa crusgalli, ECHCG); settings: Echinochloa crus-galli, pre-emergence, 336 h, 14 days after application, rating scale 0-100; for pest or weed control at 125 g/ha: Rate 125 g al/ha; for pest or weed control at 500 g/ha: Rate 500 g al/ha
Summary of the method: as §1

[3] = tested on: redroot pigweed (Amaranthus retroflexus, AMARE); settings: Amaranthus retroflexus, pre-emergence, 336 h, 14 days after application, rating scale 0-100; for pest or weed control at 125 g/ha: Rate 125 g al/ha; for pest or weed control at 500 g/ha: Rate 500 g al/ha
Summary of the method: as §1

| SMILES | pest or weed control at 125 g/ha [1] | pest or weed control at 500 g/ha [1] | pest or weed control at 125 g/ha [2] | pest or weed control at 500 g/ha [2] | pest or weed control at 125 g/ha [3] | pest or weed control at 500 g/ha [3] |
| --- | --- | --- | --- | --- | --- | --- |
| Nn1c(C(F)(F)F)cc(=S)n(-c2cc(Oc3ccc(Cl)cn3)c(Cl)cc2F)c1=O [Compound 9-28, 1-amino-3-[4-chloro-2-fluoro-5-(5-chloro-2-pyridyloxy)phenyl]-6-trifluoromethyl-1,2,3,4tetrahydro-2-oxo-4-thioxopyrimidine] | 70% | 100% | 20% | 80% | 100% | 100% |
| Nn1c(C(F)(F)F)cc(=O)n(-c2cc(Oc3ccccc3C(F)(F)F)c(Cl)cc2F)c1=O [Compound 9-24, 1-amino-3-[4-chloro-2-fluoro-5-(2-trifluoromethylphenoxy)phenyl]-6-trifluoromethyl-1,2,3,4-tetrahydropyrimidine-2,4-dione] | 90% | 100% | 60% | 70% | 95% | 100% |
| Nn1c(C(F)(F)F)cc(=O)n(-c2cc(Oc3nc(F)c(F)cc3F)c(Cl)cc2F)c1=O [Compound 9-6, 1-Amino-3-[4-chloro-2-fluoro-5-(3,5,6-trifluoro-2-pyridyloxy)phenyl]-6-trifluoromethyl-1,2,3,4-tetrahydropyrimidine-2,4-dione] | 100% | 100% | 90% | 100% | 100% | 100% |
| N#Cc1ccc(Oc2cc(-n3c(=O)cc(C(F)(F)F)n(N)c3=O)c(F)cc2Cl)nc1 [Compound 9-10, 1-Amino-3-[4-chloro-2-fluoro-5-(5-cyano-2-pyridyloxy)phenyl]-6-trifluoromethyl-1,2,3,4-tetrahydropyrimidine-2,4-dione] | 90% | 100% | 90% | 100% | 100% | 100% |
| Nn1c(C(F)(F)F)cc(=O)n(-c2cc(Oc3ccc(Cl)cn3)c(Cl)cc2F)c1=O [Compound 9-3, 1-Amino-3-[4-chloro-2-fluoro-5-(5-chloro-2-pyridyloxy)phenyl]-6-trifluoromethyl-1,2,3,4-tetrahydropyrimidine-2,4-dione] | 95% | 100% | 30% | 99% | 100% | 100% |
| Nn1c(C(F)(F)F)cc(=O)n(-c2cc(Oc3ccccc3[N+](=O)[O-])c(Cl)cc2F)c1=O [Compound 9-21, 1-amino-3-[4-chloro-2-fluoro-5-(2-nitrophenoxy)phenyl]-6-trifluoromethyl-1,2,3,4-tetrahydropyrimidine-2,4-dione] | 100% | 100% | 90% | 100% | 100% | 100% |
| Nn1c(C(F)(F)F)cc(=O)n(-c2cc(Oc3ccc([N+](=O)[O-])cc3C(F)(F)F)c(Cl)cc2F)c1=O [Compound 9-22, 1-Amino-3-[4-chloro-2-fluoro-5-(4-nitro-2-trifluoromethylphenoxy)phenyl]-6-trifluoromethyl-1,2,3,4-tetrahydropyrimidine-2,4-dione] | 80% | 100% | 50% | 90% | 100% | 100% |
| Nn1c(C(F)(F)F)cc(=O)n(-c2cc(Oc3ccc(Br)cn3)c(Cl)cc2F)c1=O [Compound 9-2, 1-Amino-3-[4-chloro-2-fluoro-5-(5-bromo-2-pyridyloxy)phenyl]-6-trifluoromethyl-1,2,3,4-tetrahydropyrimidine-2,4-dione] | 95% | 100% | 20% | 95% | 80% | 100% |
| N#Cc1cccnc1Oc1cc(-n2c(=O)cc(C(F)(F)F)n(N)c2=O)c(F)cc1Cl [Compound 9-9, 1-Amino-3-[4-chloro-2-fluoro-5-(3-cyano-2-pyridyloxy)phenyl]-6-trifluoromethyl-1,2,3,4-tetrahydropyrimidine-2,4-dione] | 100% | 100% | 100% | 100% | 100% | 100% |
| Nn1c(C(F)(F)F)cc(=O)n(-c2cc(Oc3cccc(Cl)n3)c(Cl)cc2F)c1=O [Compound 9-5, 1-Amino-3-[4-chloro-2-fluoro-5-(6-chloro-2-pyridyloxy)phenyl]-6-trifluoromethyl-1,2,3,4-tetrahydropyrimidine-2,4-dione] | 95% | 100% | 90% | 100% | 100% | 100% |
| Cc1nsc(Oc2cc(-n3c(=O)cc(C(F)(F)F)n(N)c3=O)c(F)cc2Cl)c1[N+](=O)[O-] [Compound 9-14, 1-Amino-3-[4-Chloro-2-fluoro-5-(3-methyl-4-nitroisothiazol-5-yloxy)phenyl]-6-trifluoromethyl-1,2,3,4-tetrahydropyrimidine-2,4-dione] | 100% | 100% | 95% | 90% | 100% | 100% |
| Nn1c(C(F)(F)F)cc(=O)n(-c2cc(Oc3ccccn3)c(Cl)cc2F)c1=O [Compound 9-15, 1-amino-3-[4-chloro-2-fluoro-5-(2pyridyloxy)phenyl]-6-trifluoromethyl-1,2,3,4-tetrahydropyrimidine-2,4-dione] | 100% | 10% | 100% | 100% | 100% | 100% |
| Nn1c(C(F)(F)F)cc(=O)n(-c2cc(Oc3ncccc3C(F)(F)F)c(Cl)cc2F)c1=O [Compound 9-7, 1-Amino-3-[4-chloro-2-fluoro-5-(3-trifluoromethyl-2-pyridyloxy)phenyl]-6-trifluoromethyl-1,2,3,4-tetrahydropyrimidine-2,4-dione] | 100% | 100% | 90% | 100% | 100% | 100% |
| Nn1c(C(F)(F)F)cc(=O)n(-c2cc(Oc3ccccc3)c(Cl)cc2F)c1=O [Compound 9-26, 1-Amino-3-[4-chloro-2-fluoro-5-phenoxyphenyl]-6-trifluoromethyl-1,2,3,4-tetrahydropyrimidine-2,4-dione] | 100% | 100% | 95% | 100% | 100% | 100% |
| Nn1c(C(F)(F)F)cc(=O)n(-c2cc(Oc3cc(C(F)(F)F)ccn3)c(Cl)cc2F)c1=O [Compound 9-8, 1-Amino-3-[4-chloro-2-fluoro-5-(4-trifluoromethyl-2-pyridyloxy)phenyl]-6-trifluoromethyl-1,2,3,4-tetrahydropyrimidine-2,4-dione] | 20% | 100% | 30% | 99% | 100% | 100% |
| Nn1c(C(F)(F)F)cc(=O)n(-c2cc(Oc3ncccn3)c(Cl)cc2F)c1=O [Compound 9-16, 1-Amino-3-[4-chloro-2-fluoro-5-(2-pyrimidyloxy)phenyl]-6-trifluoromethyl-1,2,3,4-tetrahydropyrimidine-2,4-dione] | 100% | 100% | 100% | 100% | 100% | 100% |
| Nn1c(C(F)(F)F)cc(=O)n(-c2cc(Oc3cc([N+](=O)[O-])cc(C(F)(F)F)c3)c(Cl)cc2F)c1=O [Compound 9-23, 1-Amino-3-[4-chloro-2-fluoro-5-(3-nitro-5-trifluoromethylphenoxy)phenyl]-6-trifluoromethyl-1,2,3,4-tetrahydropyrimidine-2,4-dione] | 10% | 95% | 10% | 70% | 100% | 100% |
| Nn1c(C(F)(F)F)cc(=O)n(-c2cc(Oc3ccc([N+](=O)[O-])cn3)c(Cl)cc2F)c1=O [Compound 9-11, 1-Amino-3-[4-chloro-2-fluoro-5-(5-nitro-2-pyridyloxy)phenyl]-6-trifluoromethyl-1,2,3,4-tetrahydropyrimidine-2,4-dione] | 30% | 95% | 10% | 80% | 100% | 100% |
